This note sets out measurements from patent US7101844B2, “Cytoplasmic transduction peptides and uses thereof” (Creagene, Inc., priority 2002, dated 2006).

Test [1] relates to HeLa cells. The experiment in a line: Transduction of PTD- and CTP-β-galactosidase into HeLa cells (X-gal staining after fixation). In kind it is cell-based. As to conditions: 100 μg/ml, 1 hr; for transduction potential: β-galactosidase fusion protein, HeLa cells, fixation. The source says: Although various other substitutions could be performed, it is essential in this invention that the introduction of a positive charge by arginine and the substitution by an α-helix stabilizing amino acid should be carried out for maintaining the principle function of the PTD peptide. Therefore, as a substitute amino acid, the positively charged amino acid is restricted to arginine, and the negatively charged amino acid is restricted to glutamic acid. β-galactosidase was fused to the CTP candidate peptide, the fusion proteins were isolated and purified (see FIG. 2), and HeLa cells were treated with each of the fusion proteins. This was then followed by an analysis of the transduction potential and a determination of the extent of the cytoplasmic remaining property.
The transduction potential of the PTD and CTP candidates was tested with HeLa cells. Using a 24-well plate (Nunc), 5×10^4 HeLa cells were inoculated into high glucose DMEM (containing 10% FBS) and cultured for 36 hr. The cells were rinsed with PBS and treated with 100 μg/ml of PTD- and CTP-β-galactosidase in an opti-MEM I medium. After 1-hr incubation, cells were fixed for 10 min at room temperature with a fixation solution (2% formaldehyde, 0.2% glutaraldehyde in PBS). Then, the cells were rinsed twice with PBS, and stained for 2 hr with dye (0.1% X-gal, 5 mM potassium ferricyanide, 5 mM potassium ferrocyanide, 2 mM MgCl2 in PBS) to examine their transduction potential (see FIG. 3). The samples showing a low level of staining, even after a 2-hr staining, were incubated overnight, and then stained for the relative transduction potential. The transduction potentials of the PTD and CTP candidates into HeLa cells were seen to be in the following order: PTD5<CTP502<<CTP501=CTP506<CTP507<CTP505<CTP503=CTP504<CTP508=CTP510=MTS<CTP509<<PTD=CTP511<<CTP512.

For test [2], the system named is HeLa cells. The test can be described thus: Subcellular localization of CTP-β-gal by confocal scanning microscope. To be noted: β-galactosidase fusion protein, 100 μg/ml, 1 hr. In kind it is cell-based. From the text:
To select cytoplamic transduction peptides (CTPs) of interest, HeLa cells were transduced with CTP-β-galactosidase, and then examined under the confocal scanning microscope. Before the confocal analysis, cells were stained with mouse anti-β-galactosidase antibody and 2nd antibodies conjugated with FITC (Fluorescence-iso-thio-cyanate) or with PE (phycoerythrin) together with DNA staining reagent (green fluorescence SYTO-16 DNA staining dye, Molecular Probe). First, HeLa cells (5×10^5 cells/ml) were plated onto a 6-well plate containing sterilized cover-slips and cultured overnight at 37° C. CO2 incubator. The cells were washed with PBS (pH 7.4) and 1 ml of an OPTI-MEM I medium was added, followed by treatment with candidate CTP-fused proteins (100 μg/ml). As a positive control, PTD-β-galactosidase fusion protein was employed, and as a negative control, only β-galactosidase protein was used. Following the treatment with candidate CTP-β-galactosidase fusion proteins, cells were incubated for 1 hr at 37° C. incubator. The cells were rinsed three times with PBS and fixed with 2% paraformaldehyde for 20 min at 4° C. HeLa cells fixed were washed twice with washing buffer (PBS containing 0.2% BSA and 0.02% sodium azide). To stain the cells with antibody, cells were pre-treated with 0.5% Triton X-100 (in PBS, Sigma) at 4° C. for 20 min. Cells were washed three times with washing buffer and then stained with mouse anti-β-galactosidase antibody (diluted 1:2,000, Sigma) for 1 hr at 4° C. as a primary antibody and then washed three times with washing buffer. Cells were then incubated with FITC-conjugated goat anti-mouse IgG (diluted 1:2,000, Jackson Laboratory) as a secondary antibody for 20 min at 4° C. Washed 3 times with the same washing buffer, cells were fixed on a slide glass with fluorescence mounting medium (DAKO) and the edge of slide glass was sealed with nail vanish.
Double staining was carried out with SYTO-16 DNA staining dye as follows: First, the cells were incubated with the primary antibodies under the same conditions and rinsed three times. Then, the cells were incubated at 4° C. for 20 min with PE-conjugated goat anti-mouse IgG PE (diluted 1:2,000, Jackson Laboratory). Washed three times with washing buffer, cells were incubated with SYTO-16 DNA staining dye (diluted 1:1,000, DAKO) for 20 min at 4° C. Cells were fixed and sealed on a slide glass and then examined under a confocal laser scanning microscope.
In the present experiment, LEICA TCS NT SP confocal microscope (LEICA Lasertech GmbH, Heidelverg, Germany) was employed, which was equipped with lager generator of argon (Ar) and krypton (Kr), scanning device, and filter capable of detecting FITC (510–550 nm) and PE (600–660) at independent channel. Photographs were taken by PL-APO X100 objective. For single staining, the cells were sectioned into 4-layers and fluorescence and transmission photographs were taken. For double staining, FITC, PE, and transmission photographs were taken using optimal respective filter.

The subject of test [3] is HeLa cells. The experiment in a line: Quantitative analysis of the membrane permeability of CTP-β-gal (β-gal activity of lysates of trypsinized cells). The class given is cell-based. As to conditions: incubation for 20 hr. The procedure:
For the quantitatation of the permeability of each CPP-fusion protein, HeLa cells were treated with PTD, MTS and CTP508, 509, 511, 512, 513 and 514, CPP-β-gal fusion proteins for 20 hr as described above, and the cells were trypsinized, followed by measuring the amounts of fusion protein imported into cells. Trypsin-treated cells were washed twice with 10% FBS-containing DMEM (high glucose) to inactivate any residual trypsin activity, and then washed once with 1× PBS. The cells collected by centrifugation were resuspended in a 0.9% Triton-X 100 solution, incubated for 10 min at room temperature to lyse cells, and then the supernatant of each lysate was obtained by centrifugation at 12000 rpm for 2 min. The β-gal activity of each sample was measured at 570 nm using enhanced β-gal assay kit (GTS Inc, USA) and an ELISA reader.

The subject of test [4] is HeLa cells. The experiment in a line: Subcellular localization of CTP-FITC by confocal microscope without cell fixation. In kind it is cell-based. As to conditions: FITC-labeled peptide, 25 μg/ml, 1 hr. The source says: Fixation step is inevitable for examining the subcellular localization of the transduced β-gal in the cells with antibodies. However, according to the previous reports, the fusion protein attached to cell surface is very likely to be introduced into the cell during a cell fixation procedure, which may affect its transduction potential and its subcellular localization. However, FITC-labeled membrane permeation peptides allow its subcellular localization to be observed under a confocal microscope without cell fixation. Monolayered HeLa cells were treated for 1 hr with FITC-labeled CTP, PTD or MTS at a concentration of 25 μg/ml, and washed three times with HBSS, followed by observation under a confocal microscope without cell fixation.

The test system of test [5] is HeLa, L929, RENCA, Jurkat cell lines and splenocytes. The experiment in a line: Transduction potential of CTP in various cell types. In kind it is cell-based, human, mouse. As to conditions: FITC-labeled peptide. The procedure:
The examples described above analyzed the transduction potential solely by the use of HeLa cells. In this Example, the transduction potential of CTP was evaluated with other cell types including mouse cell lines (mouse fibroblast L929 and mouse renal cancer cell line RENCA), human lymphoid T cell line (Jurkat cells) and primary mouse splenocytes.

Entries after “also recorded” stand apart in the source; their conditions may differ.

Turning to “CTP512: CTP (2G4R8R9R), sequence YGRRARRRRRR; representative CTP used from Example 5-4 on”, the transduction potential result with HeLa cells [1] is given as “higher transduction potential than the wild type PTD; also recorded: significantly high transduction potential”; in the test with HeLa cells [1] (listed as CTP 512), “transduction potential higher than wild type PTD”. For the same substance, the “order of transduction potentials into HeLa cells” value in the test on HeLa cells [1] (β-galactosidase fusion, X-gal staining) is on record as “CTP511<<CTP512”. Moreover, the “cytoplasmic remaining property / subcellular localization” value is on record as “excellent cytoplamic localization property; also recorded: excellent cytoplamic remaining property; also recorded: significantly high” with HeLa cells [2] and “excellent cytoplasmic remaining property” in the test on HeLa cells [2] (listed as CTP 512). The “transduction into HeLa cells” value with HeLa cells [3] is on record as “much higher transduction potential than either the PTD or the MTS”. The “order of transduction potential” value with HeLa cells [4] is listed as “CTP512>513”. Moreover, the subcellular localization entry in the test on HeLa cells [4] is “observed only in the cytoplasm, and not in the nucleus”. In test [5], the “transduction potential in various cell types” value was “highest transduction potential”.
